System: 292921-168-R-J2-PDC KRAS tumor spheroid viability
Assay: Anticancer human tumor 292921-168-R-J2-PDC patient-derived pancreatic carcinoma cell line growth inhibition [KRAS2]
Conditions: spheroids with HUVEC and MSC; for viability, T/C: stronger effect = lower value
Summary of the method: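 Combination screen of spheroid viability in tumor-cell co-cultures with endothelial (HUVEC) and mesenchymal stem cell stroma. Each agent was tested in half-log dilutions, topping at clinical Cmax or at 10 microM without a known Cmax.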

[1] = curve of first compound, second compound 0.1 µM
[2] = curve of first compound, second compound 0.316 µM
[3] = curve of first compound, second compound 1 µM
[4] = curve of first compound, second compound 3.16 µM
[5] = curve of first compound, second compound 10 µM
[6] = second compound 0.1 µM, first compound 0.01 µM
[7] = second compound 0.1 µM, first compound 0.0316 µM
[8] = second compound 0.1 µM, first compound 0.1 µM
[9] = second compound 0.316 µM, first compound 0.01 µM
[10] = second compound 0.316 µM, first compound 0.0316 µM
[11] = second compound 0.316 µM, first compound 0.1 µM
[12] = second compound 1 µM, first compound 0.01 µM
[13] = second compound 1 µM, first compound 0.0316 µM
[14] = second compound 1 µM, first compound 0.1 µM
[15] = second compound 3.16 µM, first compound 0.01 µM
[16] = second compound 3.16 µM, first compound 0.0316 µM
[17] = second compound 3.16 µM, first compound 0.1 µM
[18] = second compound 10 µM, first compound 0.01 µM
[19] = second compound 10 µM, first compound 0.0316 µM
[20] = second compound 10 µM, first compound 0.1 µM
[21] = second compound 0.1 µM, first compound 0.316 µM
[22] = second compound 0.1 µM, first compound 1 µM
[23] = second compound 0.1 µM, first compound 3.16 µM
[24] = second compound 0.1 µM, first compound 10 µM
[25] = second compound 0.316 µM, first compound 0.316 µM
[26] = second compound 0.316 µM, first compound 1 µM
[27] = second compound 0.316 µM, first compound 3.16 µM
[28] = second compound 0.316 µM, first compound 10 µM
[29] = second compound 1 µM, first compound 0.316 µM
[30] = second compound 1 µM, first compound 1 µM
[31] = second compound 1 µM, first compound 3.16 µM
[32] = second compound 1 µM, first compound 10 µM
[33] = second compound 3.16 µM, first compound 0.316 µM
[34] = second compound 3.16 µM, first compound 1 µM
[35] = second compound 3.16 µM, first compound 3.16 µM
[36] = second compound 3.16 µM, first compound 10 µM
[37] = second compound 10 µM, first compound 0.316 µM
[38] = second compound 10 µM, first compound 1 µM
[39] = second compound 10 µM, first compound 3.16 µM
[40] = second compound 10 µM, first compound 10 µM
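Also: drug exposure lasted seven days after spheroids formed for three days.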
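For viability, T/C in this document: percent of DMSO vehicle control viability which is 100%.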

Row | Compound | IC50 [1] [nM] | IC50 [2] [nM] | IC50 [3] [nM] | IC50 [4] [nM] | IC50 [5] [nM] | viability, T/C [7] [%] | viability, T/C [8] [%] | viability, T/C [10] [%] | viability, T/C [11] [%] | viability, T/C [13] [%] | viability, T/C [14] [%] | viability, T/C [16] [%] | viability, T/C [17] [%] | viability, T/C [19] [%] | viability, T/C [20] [%] | viability, T/C [21] [%] | viability, T/C [22] [%] | viability, T/C [23] [%] | viability, T/C [25] [%] | viability, T/C [26] [%] | also measured
1 | CN(C)C/C=C/C(=O)Nc1cc2c(Nc3ccc(F)c(Cl)c3)ncnc2cc1O[C@H]1CCOC1 + CC1OCC2(CCN(c3cnc(Sc4ccnc(N)c4Cl)c(N)n3)CC2)C1N | > 100 | 0.889 | > 100 | < 0.316 | > 100 | 57.5 | 57.4 | 52.3 | 46.1 | 93 | 79.8 | 31.2 | 33.2 | 91.5 | 85.5 |  |  |  |  |  | viability, T/C (second compound 0.1 µM, first compound 0.000316 µM): 82.2%; viability, T/C (second compound 0.1 µM, first compound 0.001 µM): 73.3%; viability, T/C (second compound 0.1 µM, first compound 0.00316 µM): 60.9%; viability, T/C [6]: 64.3%; viability, T/C (second compound 0.316 µM, first compound 0.000316 µM): 53.5%; viability, T/C (second compound 0.316 µM, first compound 0.001 µM): 48.3%; viability, T/C (second compound 0.316 µM, first compound 0.00316 µM): 46.9%; viability, T/C [9]: 45.9%; viability, T/C (second compound 1 µM, first compound 0.000316 µM): 92%; viability, T/C (second compound 1 µM, first compound 0.001 µM): 78%; viability, T/C (second compound 1 µM, first compound 0.00316 µM): 94%; viability, T/C [12]: 88.6%; viability, T/C (second compound 3.16 µM, first compound 0.000316 µM): 23.2%; viability, T/C (second compound 3.16 µM, first compound 0.001 µM): 25.3%; viability, T/C (second compound 3.16 µM, first compound 0.00316 µM): 28.8%; viability, T/C [15]: 29.8%; viability, T/C (second compound 10 µM, first compound 0.000316 µM): 50.8%; viability, T/C (second compound 10 µM, first compound 0.001 µM): 75.5%; viability, T/C (second compound 10 µM, first compound 0.00316 µM): 82.6%; viability, T/C [18]: 88.3%
2 | CC(C)NCC(C(=O)N1CCN(c2ncnc3c2C(C)CC3O)CC1)c1ccc(Cl)cc1 (stereo not drawn) + C=CC(=O)N1CCN(c2nc(=O)n(-c3c(C)ccnc3C(C)C)c3nc(-c4c(O)cccc4F)c(F)cc23)C(C)C1 | > 10000 | > 10000 | 6050 | 1640 | < 31.6 | 95.3 | 91.2 | 96.3 | 96.2 | 92.7 | 82.3 | 51.9 | 63.9 | 18.6 | 22.1 | 88.1 | 86.3 | 79.4 | 85.7 | 81.1 | viability, T/C [24]: 50.9%; viability, T/C [27]: 67.4%; viability, T/C [28]: 52.7%; viability, T/C [29]: 76.1%; viability, T/C [30]: 75.8%; viability, T/C [31]: 63.8%; viability, T/C [32]: 39.8%; viability, T/C [33]: 58.7%; viability, T/C [34]: 53.1%; viability, T/C [35]: 44.4%; viability, T/C [36]: 25.9%; viability, T/C [37]: 17.8%; viability, T/C [38]: 15.3%; viability, T/C [39]: 18.3%; viability, T/C [40]: 11.8%
3 | O=C(c1cc(Cc2n[nH]c(=O)c3ccccc23)ccc1F)N1CCN(C(=O)C2CC2)CC1 |  |  |  |  |  |  |  |  |  |  |  |  |  |  |  |  |  |  |  |  | viability, T/C (compound 0.0316 µM): 96.3% [middle of 5 runs]; viability, T/C (compound 10 µM): 46% [middle of 5 runs]; IC50 (curve of compound): 8.55 µM [middle of 5 runs]
4 | O=C(c1cc(Cc2n[nH]c(=O)c3ccccc23)ccc1F)N1CCN(C(=O)C2CC2)CC1 + COc1cc2nc(C)nc(NC(C)c3cc(N)cc(C(F)(F)F)c3)c2cc1OC1CCOC1 | > 10000 | 9620 | 9770 | 6440 | 9860 | 111 | 119 | 111 | 105 | 130 | 116 | 86.7 | 82.5 | 83.8 | 84.3 | 108 | 113 | 99.8 | 98.2 | 102 | viability, T/C [24]: 52.1%; viability, T/C [27]: 92.1%; viability, T/C [28]: 48%; viability, T/C [29]: 118%; viability, T/C [30]: 119%; viability, T/C [31]: 88.7%; viability, T/C [32]: 49.2%; viability, T/C [33]: 76%; viability, T/C [34]: 75.7%; viability, T/C [35]: 63.2%; viability, T/C [36]: 41.6%; viability, T/C [37]: 77.9%; viability, T/C [38]: 73.5%; viability, T/C [39]: 85%; viability, T/C [40]: 49.8%
5 | CC(=O)OC12COC1CC(O)C1(C)C(=O)C(O)C3=C(C)C(OC(=O)C(O)C(NC(=O)OC(C)(C)C)c4ccccc4)CC(O)(C(OC(=O)c4ccccc4)C21)C3(C)C (stereo not drawn) + CC1OCC2(CCN(c3cnc(Sc4ccnc(N)c4Cl)c(N)n3)CC2)C1N | < 10 | < 10 | < 10 | < 10 | < 10 | 14.6 | 12.2 | 11.3 | 10.6 | 17.1 | 13.4 | 11.6 | 10.9 | 11.8 | 11.8 | 12.4 | 13.6 | 16.8 | 10.7 | 12.2 | viability, T/C [6]: 14.3%; viability, T/C [9]: 14.6%; viability, T/C [27]: 13.9%; viability, T/C [12]: 16.9%; viability, T/C [29]: 13.9%; viability, T/C [30]: 14.2%; viability, T/C [31]: 22.1%; viability, T/C [15]: 13.1%; viability, T/C [33]: 10.4%; viability, T/C [34]: 13.2%; viability, T/C [35]: 13.8%; viability, T/C [18]: 13.7%; viability, T/C [37]: 11%; viability, T/C [38]: 13.4%; viability, T/C [39]: 13.7%
6 | CC1(C)CCC(CN2CCN(c3ccc(C(=O)NS(=O)(=O)c4ccc(NCC5CCOCC5)c([N+](=O)[O-])c4)c(Oc4cnc5[nH]ccc5c4)c3)CC2)=C(c2ccc(Cl)cc2)C1 + C=CC(=O)N1CCN(c2nc(=O)n(-c3c(C)ccnc3C(C)C)c3nc(-c4c(O)cccc4F)c(F)cc23)C(C)C1 | 2270 | 2190 | 2020 | 1260 | < 31.6 | 107 | 107 | 108 | 111 | 113 | 106 | 81.5 | 80.8 | 28.4 | 18.8 | 106 | 100 | 29.5 | 94.3 | 114 | viability, T/C [24]: 8.37%; viability, T/C [27]: 23.6%; viability, T/C [28]: 8.55%; viability, T/C [29]: 102%; viability, T/C [30]: 99.5%; viability, T/C [31]: 18.6%; viability, T/C [32]: 9.16%; viability, T/C [33]: 67.8%; viability, T/C [34]: 59.8%; viability, T/C [35]: 13.9%; viability, T/C [36]: 10.9%; viability, T/C [37]: 21.6%; viability, T/C [38]: 20.5%; viability, T/C [39]: 7.43%; viability, T/C [40]: 8.6%

From PubChem BioAssay AID1963870 (Molecular Pharmacology Branch, DTP, NCI, 2024)
